This series relates to skin of female albino New Zealand White rabbits. The series can be described thus: Rabbit skin irritation. As to the method: Within 24 hours to 4 hours before test application, the backs of female albino New Zealand White rabbits were clipped free of hair, exposing 2 test and 2 control areas on each side of the spine with a size of approximately 15 cm×15 cm. The two test sites are located on the left cranial section and the right caudal section of the dorsal region. The two control sites are located on the left caudal and right cranial section of the dorsal region. FIG. 2 depicts the arrangement of test and control sites. The exposed skin is wiped with alcohol and dried. Rabbits of acceptable skin quality were selected and used for testing.
A 25×25 mm gauze patch saturated with 0.5 mL of 0.9% NaCl is used for the control and applied to the clipped control sites. The patches are secured using hypoallergenic, waterproof, surgical tape over the test and control sites. The animal's trunk is securely wrapped so as to maintain the position of the patches. Patches are left applied for a minimum of four hours.
After patch removal, the test and control sites were then scored for erythema and edema at 1, 24, 48 and 72 hours after patch removal. Only the 24, 48, and 72 hour observations were scored and used for calculations. If no response was expected, testing was conducted using three animals per test article. If irritation was anticipated, one animal was tested initially. If the first animal received a score of 2 or less for either erythema or edema, 2 additional rabbits were used to conclude the test.
This total was divided by the total number of observations. The same was done for the control sites. […] These scores for each animal were added and divided by the total number of animals to give the Primary Irritation Index. […] For any response, the Maximum Irritation Response, the time of onset of the response and the time of maximum response was recorded.
To positively validate the test, 10% sodium dodecyl sulfate (SDS), which is a known dermal irritant, in petroleum jelly was applied to a 2.5 cm×2.5 cm gauze patch. As a negative control, 0.5 mL of 0.9% NaCl was applied to a 2.5 cm×2.5 cm gauze patch. A Primary Irritation Index in the moderate to severe range is considered a positive result. The test system and methods utilized were the same as described above.

Where [1] appears, read: per rabbit, 24, 48 and 72 hour observations after patch removal, direct application, sulfate.

Values joined by “and” are separate entries in the source; they are usually repeats but may differ in a detail not shown here. Identical values can stand only once.

Turning to `CCCCCCCCCCCCOS(=O)(=O)[O-].[Na+]` [10% SDS, sodium dodecyl sulfate], for the setting “3 animals”, the “Primary Irritation Index” value is given as 6.4 and the “Total Average (sum over animals)” value came out at 19.3. Moreover, under setting [1], the “ED (edema) score sum” value was 19 and 21 and 14; the “ER (erythema) score sum” value was 21 and 23 and 18; the “ER + ED = Total” value is 40 and 44 and 32.

The values are drawn from patent US12171901B2, “Powdered collagen wound care compositions” (priority 2021, dated 2024).
